Results on 13 compounds are retold here after patent publication US7550459B2, “Tetrahydroquinoline analogues as muscarinic agonists” (Acadia Pharmaceuticals, Inc., priority 2001, dated 2009).

What all share (assay type): cell-based
One assay has as its target T1, M2 muscarinic receptor (Homo sapiens, UniProt P08172).
T1 construct: expressed in transfected cells
T1 sequence (P08172 1-466): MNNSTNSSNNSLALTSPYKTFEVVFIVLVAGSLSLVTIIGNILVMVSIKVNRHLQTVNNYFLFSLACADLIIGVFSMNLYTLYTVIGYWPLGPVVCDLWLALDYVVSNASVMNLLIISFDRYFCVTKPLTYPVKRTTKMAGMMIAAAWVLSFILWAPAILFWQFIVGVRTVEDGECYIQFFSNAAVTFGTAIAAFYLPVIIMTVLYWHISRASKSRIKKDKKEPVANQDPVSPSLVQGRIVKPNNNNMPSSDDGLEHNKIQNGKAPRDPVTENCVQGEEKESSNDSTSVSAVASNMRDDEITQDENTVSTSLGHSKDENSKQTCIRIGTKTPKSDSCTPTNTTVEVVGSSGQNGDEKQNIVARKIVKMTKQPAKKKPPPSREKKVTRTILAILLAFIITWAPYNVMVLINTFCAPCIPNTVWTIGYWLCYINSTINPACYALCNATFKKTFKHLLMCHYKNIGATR
Kind of assay: Receptor Selection and Amplification (R-SAT) assay, cloned M2 receptor. Further details: M2 Eff: scale not given here. To be noted: for Emax: read-out: m2 % Efficacy. From the text: (§1) The EC50 for an agonist is intended to denote the concentration of a compound needed to achieve 50% of a maximal response seen in an in vitro assay such as R-SAT. For inverse agonists, EC50 is intended to denote the concentration of a compound needed to achieve 50% inhibition of an R-SAT response from basal, no compound, levels.
(§2) A particularly convenient functional assay system is the receptor selection and amplification assay (R-SAT assay) in U.S. Pat. No. 5,707,798, which describes a method of screening for bioactive compounds by utilizing the ability of cells transfected with receptor DNA, e.g., coding for the different muscarinic subtypes, to amplify in the presence of a ligand of the receptor. Cell amplification is detected as increased levels of a marker also expressed by the cells.
(§3) Receptor Selection and Amplification (R-SAT) assays were carried out using the cloned M1-M5 receptors essentially as described in: Brauner-Osborne H, Brann M R. Pharmacology of muscarinic acetylcholine receptor subtypes (m1-m5): high throughput assays in mammalian cells. Eur J Pharmacol Jan. 4, 1996;295(1):93-102, and Spalding T A, Trotter C, Skjaerbaek N, Messier T L, Currier E A, Burstein E S, Li D, Hacksell U, Brann M R. Discovery of an ectopic activation site on the M(1) muscarinic receptor. Mol Pharmacol. 2002 June;61(6):1297-302.

For another assay, the target named is T2, M1 muscarinic receptor (Homo sapiens, UniProt P11229).
T2 construct: expressed in transfected cells
T2 sequence (P11229 1-460): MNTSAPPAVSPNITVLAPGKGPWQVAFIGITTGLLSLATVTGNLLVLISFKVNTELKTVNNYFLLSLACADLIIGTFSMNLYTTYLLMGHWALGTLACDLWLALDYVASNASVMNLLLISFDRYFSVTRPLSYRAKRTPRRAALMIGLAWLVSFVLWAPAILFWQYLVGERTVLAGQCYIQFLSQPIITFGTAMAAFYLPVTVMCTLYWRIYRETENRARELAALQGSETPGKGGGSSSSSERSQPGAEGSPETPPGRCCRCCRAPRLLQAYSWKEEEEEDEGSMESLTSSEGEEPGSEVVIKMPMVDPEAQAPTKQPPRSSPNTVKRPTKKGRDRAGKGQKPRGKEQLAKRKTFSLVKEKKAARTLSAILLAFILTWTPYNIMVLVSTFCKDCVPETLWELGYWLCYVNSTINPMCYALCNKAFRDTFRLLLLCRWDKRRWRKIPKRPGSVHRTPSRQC
Kind of assay: Receptor Selection and Amplification (R-SAT) assay, cloned M1 receptor. Further details: M1 Eff: scale not given here. To be noted: for Emax: read-out: m1 % Efficacy.
Source text: as §1, §2, §3

The next assay deals with T3, M4 muscarinic receptor (Homo sapiens, UniProt P08173).
T3 construct: expressed in transfected cells
T3 sequence (P08173 1-479): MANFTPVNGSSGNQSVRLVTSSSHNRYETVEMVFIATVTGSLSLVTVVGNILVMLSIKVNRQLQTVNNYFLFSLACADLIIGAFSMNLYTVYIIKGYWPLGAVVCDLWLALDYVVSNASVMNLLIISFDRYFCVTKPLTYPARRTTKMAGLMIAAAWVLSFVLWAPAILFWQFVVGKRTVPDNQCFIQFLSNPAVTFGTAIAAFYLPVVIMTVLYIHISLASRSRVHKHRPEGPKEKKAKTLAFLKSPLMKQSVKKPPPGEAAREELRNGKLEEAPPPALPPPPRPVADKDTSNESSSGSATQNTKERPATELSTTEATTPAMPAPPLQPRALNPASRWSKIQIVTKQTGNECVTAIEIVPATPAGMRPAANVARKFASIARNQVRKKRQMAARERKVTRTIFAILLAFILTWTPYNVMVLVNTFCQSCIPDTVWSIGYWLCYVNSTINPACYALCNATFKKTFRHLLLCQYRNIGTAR
Nature of the assay: Receptor Selection and Amplification (R-SAT) assay, cloned M4 receptor. To be noted: for Emax: read-out: m4 % Efficacy.
Source text: as §1, §2, §3

The target of a further assay is T4, M3 muscarinic receptor (Homo sapiens, UniProt P20309).
T4 construct: expressed in transfected cells
Kind of assay: Receptor Selection and Amplification (R-SAT) assay, cloned M3 receptor.
Source text: as §1, §2, §3

Setting [1] is: R-SAT, cloned m2 receptor, read-out: m2 pEC50 (converted).
The mark [2] stands for this setting: R-SAT, cloned m1 receptor, read-out: m1 pEC50 (converted).
Where [3] appears, read: R-SAT, cloned m4 receptor, read-out: m4 pEC50 (converted).
[4] abbreviates: M2 pEC50, R-SAT, second table (COMPOUND ID series).
The mark [5] stands for this setting: R-SAT, second table (COMPOUND ID series).
The mark [6] stands for this setting: M1 pEC50, R-SAT, second table (COMPOUND ID series).
The mark [7] stands for this setting: R-SAT, second table (COMPOUND ID series), read-out: M2 pEC50 (converted).
[8] abbreviates: R-SAT, second table (COMPOUND ID series), read-out: M1 pEC50 (converted).
Setting [9] is: R-SAT, second table (COMPOUND ID series), read-out: M3 pEC50 (converted).
[10] abbreviates: m2 pEC50, R-SAT, cloned m2 receptor.
The mark [11] stands for this setting: m1 pEC50, R-SAT, cloned m1 receptor.

Where two headings read alike, the source gives them in different places.

T4 sequence (P20309 whole entry): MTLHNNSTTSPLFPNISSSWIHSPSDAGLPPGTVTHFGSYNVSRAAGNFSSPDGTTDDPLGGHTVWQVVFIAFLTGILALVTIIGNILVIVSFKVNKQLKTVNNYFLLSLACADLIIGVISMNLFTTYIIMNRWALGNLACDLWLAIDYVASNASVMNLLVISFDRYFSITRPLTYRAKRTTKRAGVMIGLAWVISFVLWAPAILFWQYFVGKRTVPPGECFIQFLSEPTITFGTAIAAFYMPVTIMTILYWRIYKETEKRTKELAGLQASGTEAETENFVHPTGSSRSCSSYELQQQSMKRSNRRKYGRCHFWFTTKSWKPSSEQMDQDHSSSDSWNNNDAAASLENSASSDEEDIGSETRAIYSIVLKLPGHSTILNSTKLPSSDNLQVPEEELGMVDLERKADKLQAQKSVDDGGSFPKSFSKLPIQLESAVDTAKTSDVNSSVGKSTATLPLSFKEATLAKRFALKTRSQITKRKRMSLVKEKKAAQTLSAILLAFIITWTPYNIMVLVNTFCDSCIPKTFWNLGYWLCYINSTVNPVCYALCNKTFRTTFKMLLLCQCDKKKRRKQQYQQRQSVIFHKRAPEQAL

Regarding `CCCCC1CCN(CCCN2c3ccccc3CCC2C)CC1` (stereo not drawn) [Compound 55-LH-28-8, 1-[3-(4-Butyl-piperidin-1-yl)-propyl]-2-methyl-1,2,3,4-tetrahydro-quinoline], the Emax at M2 muscarinic receptor (R-SAT, cloned m2 receptor) stood at 67%; on M1 muscarinic receptor (R-SAT, cloned m1 receptor), 45%; at M4 muscarinic receptor (R-SAT, cloned m4 receptor), 64%. Besides, the results for the EC50 at M2 muscarinic receptor (setting [1]), at M1 muscarinic receptor (setting [2]) and at M4 muscarinic receptor (setting [3]) were over 3160 nM, 200 nM and over 3160 nM, respectively.
Turning to `CCCCC1CCN(CCCN2CCOc3ccc(C)cc32)CC1` [Compound 64LHY91-6, 4-[3-(4-Butyl-piperidin-1-yl)-propyl]-6-methyl-3,4-dihydro-2H-benzo[1,4]oxazine], the Emax came to 31% on M2 muscarinic receptor (R-SAT, cloned m2 receptor); 86% on M1 muscarinic receptor (R-SAT, cloned m1 receptor); 52% on M4 muscarinic receptor (R-SAT, cloned m4 receptor). For the same compound, the figures for the EC50 on M2 muscarinic receptor (setting [1]), at M1 muscarinic receptor (setting [2]) and at M4 muscarinic receptor (setting [3]) were 126 nM, 63.1 nM and 251 nM, respectively.
Regarding `C[C@@H](CN1C(=O)COc2ccccc21)CN1[C@@H]2CC[C@H]1C[C@@H](OCC1CC1)C2` [Compound 00262909, (R)-4-[3-(3a -Cyclopropylmethoxy-8-azabicyclo[3.2.1]oct-8-yl)-2-methylpropyl]-4H-benzo[1.4]oxazin-3-one], the values for the EC50 at M2 muscarinic receptor (setting [4]), on M1 muscarinic receptor (setting [6]) and on M3 muscarinic receptor were 39.8 nM, 2.51 nM and 398 nM, respectively. At M2 muscarinic receptor (setting [5]), the “M2 Eff” value is 124. On M1 muscarinic receptor (setting [5]), the “M1 Eff” value is reported as 137. On M3 muscarinic receptor (setting [5]), the “M3 Eff” value came out at 52.
Consider `CC(CN1CCC(OCC2CC2)CC1)CN1C(=O)COc2ccccc21` (racemic) [Compound 00262273, (R,S)-4-[3-(4-Cyclopropylmethoxypiperidin-1-yl)-2-methylpropyl]-4H-benzo[1,4]oxazin-3-one], for which the “M2 Eff” value at M2 muscarinic receptor (setting [5]) is on record as 98. Besides, the EC50 at M2 muscarinic receptor (setting [7]) is 794 nM; at M1 muscarinic receptor (setting [8]), 25.1 nM; at M3 muscarinic receptor (setting [9]) it was 1580 nM. The “M1 Eff” value at M1 muscarinic receptor (setting [5]) amounted to 155. Also, on M3 muscarinic receptor (setting [5]), the “M3 Eff” value is on record as 35.
For `CCCCCC1CC2CCC(C1)N2C[C@@H](C)CN1C(=O)CCc2ccccc21` (stereo partly drawn) [Compound 107LH55, (R)-1-[2-Methyl-3-(3-pentyl-8-azabicyclo[3.2.1]oct-8-yl)propyl]-3,4-dihydro-1H-quinolin-2-one], the figures for the EC50 on M2 muscarinic receptor (setting [10]), on M1 muscarinic receptor (setting [11]) and at M4 muscarinic receptor were 31.6 nM, 1.26 nM and 50.1 nM, respectively. Moreover, the Emax at M2 muscarinic receptor was 28%; on M1 muscarinic receptor it was 103%; at M4 muscarinic receptor it was 54%.
For `CCCCC1CCN(CCCN2CCCc3cc(C)ccc32)CC1` [Compound 55LH44-A, 1-[3-(4-Butyl-piperidin-1-yl)-propyl]-6-methyl-1,2,3,4-tetrahydro-quinoline], the Emax amounted to 54% at M1 muscarinic receptor (R-SAT, cloned m1 receptor) and 28% at M4 muscarinic receptor (R-SAT, cloned m4 receptor). In addition, the EC50 at M1 muscarinic receptor (setting [2]) was 316 nM; at M4 muscarinic receptor (setting [3]) it was over 3160 nM.
Regarding `CCON=C1CC2CCC(C1)N2C[C@@H](C)CN1C(=O)COc2ccccc21` (single isomer, unassigned) [Compound 00261435], the EC50 was 79.4 nM at M2 muscarinic receptor (setting [4]), 3.98 nM at M1 muscarinic receptor (setting [6]) and 631 nM at M3 muscarinic receptor. In addition, the “M2 Eff” value at M2 muscarinic receptor (setting [5]) came out at 128. Besides, the “M1 Eff” value at M1 muscarinic receptor (setting [5]) is 121. On M3 muscarinic receptor (setting [5]), the “M3 Eff” value turned out to be 82.8.
`CCCCC1CCN(CCCN2CCCc3ccccc32)CC1` [Compound 55-LH-12-2, 1-[3-(4-Butyl-piperidin-1-yl)-propyl]-1,2,3,4-tetrahydro-quinoline]: the Emax on M2 muscarinic receptor (R-SAT, cloned m2 receptor) is 35%; on M1 muscarinic receptor (R-SAT, cloned m1 receptor), 72%; on M4 muscarinic receptor (R-SAT, cloned m4 receptor) it was 68%. For the same compound, the EC50 is 631 nM at M2 muscarinic receptor (setting [1]), 50.1 nM at M1 muscarinic receptor (setting [2]) and 1000 nM at M4 muscarinic receptor (setting [3]).
For `CCCCCC1CC2CCC(C1)N2C[C@@H](C)CN1C(=O)COc2ccccc21` (stereo partly drawn) [Compound 108LM39-36, (R)-4-[2-Methyl-3-(3-pentyl-8-azabicyclo[3.2.1]oct-8-yl)propyl]-4H-benzo[1,4]oxazin-3-one], the figures for the EC50 on M2 muscarinic receptor (setting [10]), on M1 muscarinic receptor (setting [11]) and at M4 muscarinic receptor were 7.94 nM, 1.58 nM and 20 nM, respectively. For the same compound, the Emax at M2 muscarinic receptor was 37%; on M1 muscarinic receptor it was 106%; at M4 muscarinic receptor, 71%.
As for `CCOCCC1CC2CCC(C1)N2CC(C)CN1C(=O)COc2ccccc21` (single isomer, unassigned) [Compound 00263201], the results for the EC50 on M2 muscarinic receptor (setting [4]), at M1 muscarinic receptor (setting [6]) and on M3 muscarinic receptor were 79.4 nM, 1 nM and 158 nM, respectively. The “M2 Eff” value at M2 muscarinic receptor (setting [5]) stood at 52. At M1 muscarinic receptor (setting [5]), the “M1 Eff” value is listed as 126. In addition, on M3 muscarinic receptor (setting [5]), the “M3 Eff” value amounted to 30.
For the compound `C[C@H](CN1CCC(OCC2CC2)CC1)CN1C(=O)COc2ccccc21` [Compound 00262908, 4-[(R)-3-(4-Cyclopropylmethoxypiperidin-1-yl)-2-methylpropyl]-4H-benzo[1,4]oxazin-3-one], at M2 muscarinic receptor (setting [5]), the “M2 Eff” value is recorded as 103. The EC50 on M2 muscarinic receptor (setting [7]) is 631 nM; on M1 muscarinic receptor (setting [8]) it was 12.6 nM; at M3 muscarinic receptor (setting [9]) it was 2510 nM. In addition, at M1 muscarinic receptor (setting [5]), the “M1 Eff” value was 126. Also, the “M3 Eff” value at M3 muscarinic receptor (setting [5]) is 74.
Take `CCCCC1CCN(CCCN2c3cc(F)ccc3CCC2C)CC1` (stereo not drawn) [Compound 77LH02-1917, 1-[3-(4-Butyl-piperidin-1-yl)-propyl]-7-fluoro-2-methyl-1,2,3,4-tetrahydro-quinoline]: the Emax at M1 muscarinic receptor (R-SAT, cloned m1 receptor) came to 55%; at M4 muscarinic receptor (R-SAT, cloned m4 receptor), 37%. Further, the EC50 on M1 muscarinic receptor (setting [2]) is 200 nM; at M4 muscarinic receptor (setting [3]) it was over 3160 nM.
`CCCC[C@]1(O)C[C@H]2CC[C@@H](C1)N2C[C@@H](C)CN1C(=O)COc2ccccc21` [Compound 00261478, (R)-4-[3-(3β-Butyl-3a-hydroxy-8-aza-bicyclo[3.2.1]oct-8-yl)-2-methyl-propyl]-1H-benzo[1,4]oxazin-3-one]: the “M2 Eff” value on M2 muscarinic receptor (setting [5]) is listed as 40. For the same compound, the EC50 is 1260 nM at M2 muscarinic receptor (setting [7]) and 1580 nM at M1 muscarinic receptor (setting [8]). Moreover, at M1 muscarinic receptor (setting [5]), the “M1 Eff” value was found to be 105.
